Source: US11730770B2, “Methods for making and using sinoatrial node-like pacemaker cardiomyocytes and ventricular-like cardiomyocytes” (UNIVERSITY HEALTH NETWORK, priority 2015, dated 2023)

Tests used:
Format in all cases: cell-based, human
[1] = tested on: HES3 NKX2-5:GFP reporter line; test: Flow cytometry of day 20 differentiation cultures for NKX2-5 and cTNT
Method: Human pluripotent stem cell lines (Hes3 NKX2-5:GFP)^10 H7 (HESC line approved by NIH registration number 0061^32 and MSC-IPS1^11 were cultured as described^12. For differentiation into the cardiac lineage the established protocol was used with the following modifications (FIG. 1A). 80% confluent hPSCs cultures were dissociated into single cells, suspended in StemPro-34 Media containing 1 ng/ml BMP4 and 10 μM ROCK inhibitor and incubated for 18 h on an orbital shaker to generate embryoid bodies (EBs). The next day (day 1 of differentiation) the EBs were transferred to mesoderm induction media: StemPro-34 containing 10 ng/ml BMP4, 6 ng/ml ActivinA, 5 ng/ml bFGF. At day 3 of differentiation the EBs were washed once using IMDM and suspended in cardiac induction media: StemPro-34 containing 0.5 μM IWP2, 10 ng/ml VEGF, and optionally 5.4 μM SB-431542 (SB, Activin/Nodal/TGFβ inhibitor). At day 5 of differentiation EBs were switched to basic media: Stempro containing 5 ng/ml VEGF. Media was supplemented with VEGF until day 12 of differentiation and changed every 4 days. All cytokines were purchased from R&D systems if not indicated otherwise. EBs were cultured under low oxygen conditions 5% CO2, 5% O2, 90% N2 until day 12 and at 5% CO2, normal air conditions for the rest of the culture period.
EBs were dissociated into single cells at the mesoderm stage (day 3 of differentiation) using TrypLE (Life Technologies) with the rational to ensure efficient cytokine supply to each cell. Cells were placed into 96 well low cluster plates at 80,000 cells/well with the indicated cytokines and 5 μM ROCK inhibitor for re-aggregation into EBs (FIG. 2A). At day 5 of differentiation EBs were transferred to 24 well low cluster plates and continued to be cultured in basic media as described above.
For efficient specification of SANLCM pacemaker, mesoderm was induced with the 3B/2A condition (3 ng/ml BMP4, 2 ng/ml ACTA) at day 1 of differentiation. At day 3 EBs were dissociated as described above and treated with 2.5 ng/ml BMP4 and 0.5 μM RA in addition to standard cardiac induction media.
For the generation of SANLCM cultures free of NKX2-5′ cardiomyocytes mesoderm was induced with the 3B/2A condition (3 ng/ml BMP4, 2 ng/ml ACTA) at day 1 of differentiation. For this protocol EBs were kept intact and treated at day 3 with 2.5 ng/ml BMP4, 0.5 μM RA and 960 nM FGF inhibitor (PD 173074, Tocris) at day 3 or day 4 in addition to standard cardiac induction media.
(§1) For the dissociation of day 3-day 12 EBs TrypLE was used. Day 12-30 EBs were incubated in HANKs buffer containing 1 mg/ml Collagenes type 2 (Worthington) with gentle shaking over night at room temperature, prior to TypLE dissociation. Cells were stained at a concentration of 5×10^6 cells/ml with anti-PDGFRα-PE (1:20) anti-KDR-APC (1:10), (R&D Systems), anti-SIRPA-PeCy (clone SE5A5, 1:1000, Biolegend), anti-CD90-APC (BD), anti-cardiac isoform of cTNT (clone 13-11; 1:2000, Thermo Fischer), rabbit anti-human NKX2-5 (1:800, Cell Signaling Technology), goat anti-mouse IgG APC (1:250, BD), goat anti-mouse IgG PE (1:200, Jackson ImmunoResearch), donkey anti-rabbit IgG A647 Life Technologies). For cell-surface markers staining was carried out in PBS containing 5% FCS. For intra-cellular staining cells were fixed for 10 min at 4° C. with 4% PFA and stained in PBS containing 5% FCS and 0.5% saponin (cTNT) or 0.3% TritonX (NKX2-5). Stained cells were analyzed using the LSR II Flow cytometer (BD). For cell sorting the cells were kept in IMDM containing 5% FCS and sorted at a concentration of 10^6 cell/ml using MoFlo (BD) and Influx (BD) sorter. For sorting of PFA-fixed cells for subsequent RNA isolation the staining buffers and PBS for cell collection were supplemented with 5 mM DTT and 100 U/ml RNaseOUT (Life Technologies). All buffer components were RNAse free and samples were strictly kept on ice and sorted within 3 h from PFA-fixation. Data were analyzed using FlowJo software (Tree Star).

[2] = tested on: pacemaker funny current (If); test: Patch clamp, pacemaker funny current density; settings: 2 mM Cesium (Cs+) vs Tyrode's solution
Method: FIG. 9. A, Current-voltage relationship for pacemaker funny current density (If) in SANLCM and VLCM. Inset: voltage protocol, from a holding potential of −40 mV currents were elicited by 3 s voltage steps of −10 mV down to −120 mV. Current densities were measured by subtraction of the instantaneous current (t=0) from the current at the end of the 3 sec voltage step. B,C Original pacemaker funny current traces at different membrane potentials in Tyrode's solution (B) and blocked by the application of 2 mM Cesium (Cs^+) (C). Inset: voltage protocol, from a holding potential of −40 mV currents were elicited by 3 s voltage steps of −10 mV down to −120 mV. […] Current densities were measured as peak inward currents. […]
Action potentials and membrane currents were measured with standard current- and voltage-clamp techniques using axopatch amplifier. […] Spontaneous action potentials, funny current (If) and inward rectifier potassium currents ([…]) were recorded at 37° C. using the perforated patch method (nystatin)^14 with the following bath solution (mM): NaCl 124. […] Sodium currents (IN) were recorded at 25° C. using the whole cell ruptured patch method in calcium free bath solution containing low Na^+ to reduce current amplitude for better voltage control (mM): NaCl 30, TEA-Cl 115, CaCb20.01, MgCl2 1, and glucose 5, Hepes 10 (pH 7.4, adjusted with NaOH). […]

[3] = tested on: HES-2 embryonic stem cell line; test: Flow cytometry of day 20 HES2 cultures, intracellular NKX2-5 and cTNT staining
Method: For the generation of SANLCM cultures free of NKX2-5′ cardiomyocytes mesoderm was induced with the 3B/2A condition (3 ng/ml BMP4, 2 ng/ml ACTA) at day 1 of differentiation. […]
as §1, with “For sorting of PFA-fixed cells for subsequent RNA isolation the staining buffers and PBS for cell collection were supplemented with 5 mM DTT and 100 U/ml RNaseOUT (Life Technologies). All buffer components were RNAse free and samples were strictly kept on ice and sorted within 3 h from PFA-fixation.” left out, “Star). […]” for “Star).”

[4] = tested on: SAN pacemaker marker, ventricular marker and cardiac ion channels; test: Q-PCR analysis of marker gene expression; settings: BMP4 day 3-5, 2.5 ng/ml vs untreated control, day 4 to 12
Method: Total RNA was isolated using the RNAqueous-micro Kit (Ambion) followed by a DNase digestion step (Ambion). For RNA isolation from PFA-fixed cells the RecoverAll Kit (Ambion) was used. 500 ng to 1 μg of RNA was reverse transcribed into cDNA using random hexamers and Oligo(dT) primers with Superscript III Reverse Transcriptase (life technologies). QPCRs were performed on the EP RealPlex MasterCycler (Eppendorf) using the QuntiFast SYBR Green PCR Kit (Qiagen) according to the manufacturer's instructions. A 10-fold dilution series of human genomic DNA standards ranging from 25 ng/μl to […] was used to evaluate the efficiency of the PCR and calculate the copy number of each gene relative to the house keeping gene TBP as described previously^13. Human fetal heart tissue gestation stage 17 was purchased from Novogenix Laboratories. After dissecting ventricular, sinoatrial node and atrioventricular node tissue RNA was isolated using the Trizol method (Life Technologies) and treated with DNase (Ambion).

[5] = tested on: TBX18; test: Quantification of TBX18+ cells from immunostaining; settings: BMP4 2.5 ng/ml day 3-5
Method: Cells were fixed with 4% PFA for 10 min at 4° C. and permeabilized using 0.3% Triton X, 200 mM Glycerin for 20 min at RT. Samples were blocked for 30 min at room temperature in blocking buffer (BB): 10% donkey serum, 2% BSA, 0.1% Triton X. The following primary antibodies were incubated in BB over night at 4° C.: anti-cardiac isoform of cTNT (clone 13-11; 1:100, Thermo Fischer), rabbit anti-human MLC2v (1:100), rabbit anti-human SHOX2 (1:200), (Abcam), rabbit anti-human TBX3 (1:100), goat anti-human Tbx18 (1:50), (Santa Cruz). Respective secondary antibodies were incubated for 30 min at RT: donkey anti-mouse IgG A647 (1:400), donkey anti-rabbit IgG A467 (1:400), (Life Technologies), goat anti-mouse IgG Cy3 (1:400), donkey anti-rabbit IgG Cy3 (1:800), donkey anti-goat IgG Cy3 (1:800), (Jackson ImmunoResearch). DAPI was used to counterstain cell nuclei and slides were mounted using Fluorescent Mounting Medium (Dako). The Olympus FluoView 1000 Laser Scanning Confocal Microscope and the FV10-ASW software were used for imaging.
For the quantification of DAPI and TBX18 positive cell nuclei the IMAGE J software plugin ICTN was used. For each condition three random taken pictures (FIG. 3F) of three independent experiments were analyzed.

CC1=C(/C=C/C(C)=C/C=C/C(C)=C/C(=O)O)C(C)(C)CCC1 [RA, retinoic acid]
generation of total cardiomyocytes and SANLCM frequency ([1]; RA 500 nM added at later times (days 3 to 12)): no effect

bFGF: fibroblast growth factor FGF2
NKX2-5-cTNT+ SANLCM population in day 20 cultures ([1]; BMP+RA plus bFGF (20 ng/ml, day 4-6)): 12±1%

[Cs] [Cesium]
effect on pacemaker funny current traces [2]: blocked

CCN(CC)CCCCNc1ncc2cc(-c3cc(OC)cc(OC)c3)c(NC(=O)NC(C)(C)C)nc2n1 [PD 173074]
NKX2-5+ myocytes in day 20 cultures ([3]; 240 nM FGFi day 3-5, vs 43% at endogenous bFGF levels): 5% | NKX2-5-cTNT+ SANLCMs in day 20 cultures ([3]; BMP 2.5 ng/ml, RA 0.5 μM, 240 nM FGFi day 3-5): up to 36% | NKX2-5+ cardiomyocytes in day 20 cultures ([1]; BMP+RA plus FGF inhibitor 240-960 nM): 51% | NKX2-5-cTNT+ SANLCM in day 20 cultures ([1]; BMP+RA plus FGF inhibitor from day 4-6 (480 nM)): 48±3% | block in development of NKX2-5+ cardiomyocytes ([1]; FGF inhibitor applied from day 5 onwards): no effect

BMP4: Bone Morphogenetic Protein 4
TBX18 expression [4]: significantly up-regulated | proportion of SANLCMs ([1]; BMP4 1.25-5 ng/ml day 3-5, mesoderm induced with 3B/2A): 35±1% | proportion of SANLCMs ([1]; BMP4 1.25-5 ng/ml day 3-5, mesoderm induced with 5B/4A): 21±1% | proportion of SANLCMs ([1]; BMP4 1.25-5 ng/ml day 3-5, mesoderm induced with 10B/6A): 15±2% | total cardiomyocytes ([1]; high levels of BMP4 (10-20 ng/ml) between day 3-5): significant reduction | number of TBX18+ cells at day 6 [5]: 38±2%
